Measurements reported in patent US20070134793A1, “REDIFFERENTIATION MEDIUM FOR MAKING […] CHONDROCYTE TO BE […] INTO CHONDROCYTE” (priority 2004, published 2007).

Tested on: dedifferentiated chondrocyte (P4, derived from human auricular cartilage)
Assay: Study of preferable amount of each component in the redifferentiation medium (type II collagen expression)
Format: cell-based
Conditions: insulin 50, 5, 0.5 μg/mL compared; BMP-2 200 ng/mL, T3 10^-7 M

insulin
content of insulin at which the expression amount of type II collagen was the largest: 5 µg/mL
